In patent US20160025730A1, “METHODS OF SELECTING COMBINATION THERAPY FOR COLORECTAL CANCER PATIENTS” (NESTEC S.A., priority 2013, published 2016):

How the values were obtained:
AKT = assay: CEER phospho AKT level; settings: Lim1215 cells, 24 h, assay range 1.02-40
ERK = assay: CEER phospho ERK level; assay type: cell-based, human; settings: Lim1215 cells, 24 h, assay range 1.02-100
MEK = assay: CEER phospho MEK level; assay type: cell-based, human; settings: Lim1215 cells, 24 h, assay range 1.02-100
Source text: (§1) These were complemented by ErbB heterodimerization assays using CEER.

RSK = assay: CEER phospho RSK level; assay type: cell-based, human; settings: Lim1215 cells, 24 h, assay range 2.56-100
Source text: as §1

HER1 [1] = assay: CEER total HER1 expression level; assay type: cell-based, human; settings: Lim1215 cells, 24 h, assay range 7.8-500
Source text: as §1

HER1:HER2 = assay: CEER ErbB heterodimerization assay, HER1:HER2 dimer; assay type: cell-based, human; settings: Lim1215 cells, 24 h, assay range 7.8-1000
Source text: (§2) In certain aspects, the present invention provides an assay for detecting and/or quantitating homo- or heterodimerization of receptor tyrosine kinases including, but not limited to, HER1:HER2 dimers, HER1:HER3 dimers, HER2:HER3 dimers, HER2:HER2 dimers, HER2:HER4 dimers, p95HER2:HER3 dimers, p95HER2:HER2 dimers, and the like. A homodimer is formed by two identical molecules such as HER2:HER2 in a process called homodimerization, whereas a heterodimer is formed by two different macromolecules such as HER1:HER3 or HER2:HER3 in a process called heterodimerization. In this aspect, the assay comprises three antibodies: (1) a capture antibody specific for one member of the dimer pair; (2) a first detection antibody specific for a first member of the dimer pair, wherein the first detection antibody is specific for a different domain than the capture antibody; and a (3) a second detection antibody specific for a second member of the dimer pair.
(§3) A first detection antibody is then used to bind to a different portion (e.g., epitope) on HER2. […] The first detection antibody comprises one or a plurality of first activation state-independent antibodies specific for one member of the dimer, whereas a second detection antibody or a plurality of second detection antibodies is specific for the other member of the dimer. […] Thereafter, the plurality of detectable captured analytes are incubated with a second member of the signal amplification pair, e.g., tyramide or tyramide biotin to generate an amplified signal, which is then detected.
as §1

HER2 [2] = assay: CEER total HER2 expression level; assay type: cell-based, human; settings: Lim1215 cells, 24 h, assay range 390-25000
Source text: as §1

HER1:HER3 = assay: CEER ErbB heterodimerization assay, HER1:HER3 dimer; assay type: cell-based, human; settings: Lim1215 cells, 24 h, assay range 200-20000
Source text: as §2, §3, §1

HER2:HER3 = assay: CEER ErbB heterodimerization assay, HER2:HER3 dimer; assay type: cell-based, human; settings: Lim1215 cells, 24 h, assay range 50-1500
Source text: as §2, §3, §1

HER3 [3] = assay: CEER total HER3 expression level; assay type: cell-based, human; settings: Lim1215 cells, 24 h, assay range 390-25000
Source text: as §1

HER3 [4] = assay: CEER phospho HER3 activation level; assay type: cell-based, human; settings: Lim1215 cells, 24 h, assay range 12.8-1500
Source text: as §1

HER2 [5] = target: T1, HER2 (Homo sapiens, UniProt P04626); assay: CEER phospho HER2 activation level; assay type: cell-based; settings: Lim1215 cells, 24 h, assay range 20.48-2000
T1 construct: endogenous in cells; host or cells: Lim1215 human colon cancer cells
Source text: as §1

HER3:PI3K = assay: CEER HER3:PI3K complex assay; assay type: cell-based, human; settings: Lim1215 cells; 24 h; series 4 (FIG. 4; DMSO 24.7); assay range 3.9-500
Source text: The assays described herein can be used to detect and quantitate the amount of PI3K complex and the amount of activation and/or phosphorylation of a PI3K complex. The PI3K complex comprises: (i) a dimerized receptor tyrosine kinase pair; and (ii) a PI3K p85 subunit and a PI3K p110 (e.g., α or β) subunit. In particular embodiments, the assay comprises three antibodies: (1) a capture antibody specific for either the PI3K p85 or the PI3K p110 subunit; (2) a first detection antibody specific for a first member of the dimerized receptor tyrosine kinase pair or a PI3K subunit, wherein the first detection antibody is specific for a different domain than the capture antibody and wherein the PI3K subunit may be activated; and (3) a second detection antibody specific for a second member of the dimer pair or a PI3K subunit.
as §1

HER1 [6] = target: T2, HER1 (Homo sapiens, UniProt P00533); assay: CEER phospho HER1 activation level; assay type: cell-based; settings: Lim1215 cells; 24 h; series 4 (FIG. 4; DMSO 4.7); assay range 0.14-10.67
T2 construct: endogenous in cells; host or cells: Lim1215 human colon cancer cells
Source text: as §1

[7] = series 3 (FIG. 3; control 11.4)
[8] = series 3 (FIG. 3; control 16.3)
[9] = series 3 (FIG. 3; control […] >ULOQ)
[10] = series 3 (FIG. 3; control 3025)
[11] = series 3 (FIG. 3; control 211.8)
[12] = series 3 (FIG. 3; control 4282)

T1 sequence (P04626 23-1255): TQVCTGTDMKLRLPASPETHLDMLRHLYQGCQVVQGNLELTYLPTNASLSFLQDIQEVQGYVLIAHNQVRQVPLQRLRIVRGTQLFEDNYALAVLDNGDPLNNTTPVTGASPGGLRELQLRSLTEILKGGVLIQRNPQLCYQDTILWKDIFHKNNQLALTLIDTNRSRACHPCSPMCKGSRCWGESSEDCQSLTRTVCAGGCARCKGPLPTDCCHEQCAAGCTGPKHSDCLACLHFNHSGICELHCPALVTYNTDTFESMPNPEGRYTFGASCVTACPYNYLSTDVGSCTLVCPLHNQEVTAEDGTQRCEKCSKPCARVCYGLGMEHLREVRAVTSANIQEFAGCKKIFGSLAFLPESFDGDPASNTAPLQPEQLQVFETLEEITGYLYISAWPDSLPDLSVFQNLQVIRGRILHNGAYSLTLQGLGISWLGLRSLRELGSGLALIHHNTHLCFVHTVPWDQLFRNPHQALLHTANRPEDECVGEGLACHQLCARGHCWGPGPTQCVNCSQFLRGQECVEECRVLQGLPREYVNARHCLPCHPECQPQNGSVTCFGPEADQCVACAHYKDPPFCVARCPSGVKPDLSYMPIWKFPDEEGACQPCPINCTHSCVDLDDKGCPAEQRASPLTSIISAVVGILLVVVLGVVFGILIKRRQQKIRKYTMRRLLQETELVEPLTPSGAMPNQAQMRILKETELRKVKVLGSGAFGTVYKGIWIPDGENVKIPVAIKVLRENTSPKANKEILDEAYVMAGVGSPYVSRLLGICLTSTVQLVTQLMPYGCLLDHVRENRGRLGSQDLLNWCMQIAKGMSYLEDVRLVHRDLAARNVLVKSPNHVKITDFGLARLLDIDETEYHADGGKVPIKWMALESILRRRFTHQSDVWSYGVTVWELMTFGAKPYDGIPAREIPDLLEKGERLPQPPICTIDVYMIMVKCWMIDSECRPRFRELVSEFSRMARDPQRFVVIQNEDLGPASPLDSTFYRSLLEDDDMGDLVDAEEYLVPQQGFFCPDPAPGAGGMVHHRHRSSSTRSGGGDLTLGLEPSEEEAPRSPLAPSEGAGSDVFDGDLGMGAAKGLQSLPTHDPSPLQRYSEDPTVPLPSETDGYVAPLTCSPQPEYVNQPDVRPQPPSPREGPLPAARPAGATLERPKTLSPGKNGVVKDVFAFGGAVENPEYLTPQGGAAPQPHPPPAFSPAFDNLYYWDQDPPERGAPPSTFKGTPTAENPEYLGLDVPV
T2 sequence (P00533 25-1210): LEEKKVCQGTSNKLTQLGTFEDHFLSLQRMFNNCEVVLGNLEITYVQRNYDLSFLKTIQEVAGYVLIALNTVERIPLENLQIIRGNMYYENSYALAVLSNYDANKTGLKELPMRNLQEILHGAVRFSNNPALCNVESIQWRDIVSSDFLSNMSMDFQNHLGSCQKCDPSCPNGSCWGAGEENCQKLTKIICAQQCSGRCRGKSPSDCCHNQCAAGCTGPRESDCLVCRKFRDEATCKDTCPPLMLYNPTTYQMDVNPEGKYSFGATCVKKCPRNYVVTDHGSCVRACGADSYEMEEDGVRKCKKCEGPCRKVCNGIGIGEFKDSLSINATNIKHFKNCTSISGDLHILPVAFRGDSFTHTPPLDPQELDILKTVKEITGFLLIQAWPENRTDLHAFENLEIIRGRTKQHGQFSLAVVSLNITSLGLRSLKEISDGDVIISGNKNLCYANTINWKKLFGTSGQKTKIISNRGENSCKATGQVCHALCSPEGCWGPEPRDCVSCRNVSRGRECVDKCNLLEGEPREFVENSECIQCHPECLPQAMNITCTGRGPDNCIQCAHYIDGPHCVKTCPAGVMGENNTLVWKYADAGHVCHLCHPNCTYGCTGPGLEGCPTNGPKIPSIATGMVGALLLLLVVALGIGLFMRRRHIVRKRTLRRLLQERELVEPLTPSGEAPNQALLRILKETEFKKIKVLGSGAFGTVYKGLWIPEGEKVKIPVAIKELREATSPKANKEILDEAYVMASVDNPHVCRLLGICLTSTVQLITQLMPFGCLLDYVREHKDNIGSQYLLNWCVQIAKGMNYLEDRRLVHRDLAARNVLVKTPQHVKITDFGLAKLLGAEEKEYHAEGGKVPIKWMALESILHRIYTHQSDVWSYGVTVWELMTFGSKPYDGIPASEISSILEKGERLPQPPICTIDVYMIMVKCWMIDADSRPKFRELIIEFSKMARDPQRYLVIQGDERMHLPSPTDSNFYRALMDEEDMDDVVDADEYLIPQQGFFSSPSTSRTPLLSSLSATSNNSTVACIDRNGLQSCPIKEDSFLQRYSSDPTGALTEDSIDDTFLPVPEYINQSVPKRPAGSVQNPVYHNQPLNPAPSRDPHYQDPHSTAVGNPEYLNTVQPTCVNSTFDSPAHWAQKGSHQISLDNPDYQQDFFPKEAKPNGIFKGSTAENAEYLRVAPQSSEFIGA

Phos HER2 (2.5 ug) (HER2 [5]; series 4 (FIG. 4; DMSO 447))	Compound	Phos AKT (10 ug) (AKT; [7]) [pg/µg]	Phos ERK (10 ug) (ERK; series 3 (FIG. 3; control 5.3)) [pg/µg]	Phos ERK (10 ug) (ERK; series 4 (FIG. 4; DMSO 3.3)) [pg/µg]	Phos MEK (10 ug) (MEK; [8]) [pg/µg]	Phos MEK (10 ug) (MEK; series 4 (FIG. 4; DMSO 9.8)) [pg/µg]	Phos RSK (10 ug) (RSK; [9]) [pg/µg]	Phos RSK (10 ug) (RSK; series 4 (FIG. 4; DMSO 91.4)) [pg/µg]	Total HER2 (0.2 ug) (HER2 [2]; [10])	ErbB Dimer Formation HER2:HER3 (2 ug) (HER2:HER3; [11])	Total HER3 (0.2 ug) (HER3 [3]; [12])	Phos HER3 (10 ug) (HER3 [4]; series 3 (FIG. 3; control 573))	Total HER2 (0.2 ug) (HER2 [2]; series 4 (FIG. 4; DMSO 2581))	HER3:PI3K (4 ug) (HER3:PI3K)	ErbB Dimer Formation HER2:HER3 (2 ug) (HER2:HER3; series 4 (FIG. 4; DMSO 172.5))	Total HER3 (0.2 ug) (HER3 [3]; series 4 (FIG. 4; DMSO 3388))	other results
	COc1cc2ncnc(Nc3ccc(F)c(Cl)c3)c2cc1OCCCN1CCOCC1 [Gefitinib, gefitinib]	0.64	1.1	0.68	2.9	1.7	6.3	4.7									
	pertuzumab	1.2	2.2		8.6		92.1		5568	472.1	5501	826					Total HER1 (1 ug) (HER1 [1]; series 2 (FIG. 2; Control 171.4)): 198.5; Total HER1 (1 ug) (HER1 [1]; series 3 (FIG. 3; control 137.2)): 115.1; ErbB Dimer Formation HER1:HER2 (2 ug) (HER1:HER2; series 2 (FIG. 2; Control […])): 161.7; ErbB Dimer Formation HER1:HER2 (2 ug) (HER1:HER2; series 3 (FIG. 3; control 46.0)): 64.8; Total HER2 (0.2 ug) (HER2 [2]; series 2 (FIG. 2; Control 4212)): 7200; Phos AKT (10 ug) (AKT; series 2 (FIG. 2; Control 9.6)): 6.1 pg/µg; Phos ERK (10 ug) (ERK; series 2 (FIG. 2; Control 5.7)): 5.6 pg/µg; Phos MEK (10 ug) (MEK; series 2 (FIG. 2; Control 38.0)): 17.1 pg/µg; ErbB Dimer Formation HER1:HER3 (0.5 ug) (HER1:HER3; series 2 (FIG. 2; Control 387)): 458; ErbB Dimer Formation HER1:HER3 (0.5 ug) (HER1:HER3; series 3 (FIG. 3; control 398)): 412; Phos RSK (10 ug) (RSK; series 2 (FIG. 2; Control 289 >ULOQ)): 199 pg/µg; ErbB Dimer Formation HER2:HER3 (2 ug) (HER2:HER3; series 2 (FIG. 2; Control 250.9)): 704.6; Total HER3 (0.2 ug) (HER3 [3]; series 2 (FIG. 2; Control 7757)): 10665; Phos HER3 (10 ug) (HER3 [4]; series 2 (FIG. 2; Control 236)): 313
480	O=C(NC[C@H](O)CO)c1ccncc1Nc1ccc(I)cc1F [iMEK AS703026, AS703026]			1.1		74.9		35.9					2546	27.8	313.2	3317	Total HER1 (1 ug) (HER1 [1]; series 4 (FIG. 4; DMSO 96.8)): 69.9; ErbB Dimer Formation HER1:HER2 (2 ug) (HER1:HER2; series 4 (FIG. 4; DMSO 42.7)): 52.1; Phos HER1 (10 ug) (HER1 [6]): 2.9; ErbB Dimer Formation HER1:HER3 (0.5 ug) (HER1:HER3; series 4 (FIG. 4; DMSO 186)): 226; Phos HER3 (10 ug) (HER3 [4]; series 4 (FIG. 4; DMSO 204)): 300
15	CS(=O)(=O)CCNCc1ccc(-c2ccc3ncnc(Nc4ccc(OCc5cccc(F)c5)c(Cl)c4)c3c2)o1 [Lapatinib, lapatinib]	0.66	0.84	0.56	3.1	1.4	3.9	3.3	5391	493.6	5711	677	4135	23.0	301.3	6907	Phos HER2 (2.5 ug) (HER2 [5]; series 3 (FIG. 3; control 2068 >ULOQ)): 49
